Measured values from ChEMBL document CHEMBL5120923, “Tamarixetin Attenuated the Virulence of Staphylococcus aureus by Directly Targeting Caseinolytic Protease P” (J Nat Prod, 2022).
Values after ≈ are worked out from the molar mass of the structure shown. Active and inactive are the calls of the source. The calls are words filed in the database; no cut-off is given here.

Tests used:
Staphylococcus aureus [1] = experiment: Inhibition of PSM-alpha gene transcription level in methicillin-resistant Staphylococcus aureus USA300 at 64 ug/ml by qPCR analysis; type: functional; conditions: dose 64.0 µg/ml
A549 = experiment: Cytotoxicity against human A549 cells at 64 ug/ml by MTT assay; type: toxicity, cell-based; conditions: dose 64 µg/ml
Staphylococcus aureus [2] = experiment: Antibacterial activity against methicillin-resistant Staphylococcus aureus USA300 assessed as inhibition of bacteria-mediated hemolytic activity on rabbit erythrocytes at 128 ug/ml incubated for 30 mins by hemolysis assay; type: functional; conditions: USA300, 0.5 h
Staphylococcus aureus [3] = experiment: Synergistic antibacterial activity against methicillin-resistant Staphylococcus aureus USA300 assessed as cefotaxime MIC by checker board method; type: functional
Staphylococcus aureus [4] = experiment: Binding affinity to methicillin-resistant Staphylococcus aureus USA300 ClpP assessed as association rate constant by surface plasmon resonance assay
Staphylococcus aureus [5] = experiment: (§1) Antibacterial activity against methicillin-resistant Staphylococcus aureus USA300 infected in C57BL/6J mouse pneumonia model assessed as reduction in TNF-alpha level in lung at 100 mg/Kg, sc administered every 12 hrs measured after 48 hrs by ELISA; type: functional, organism-based
Staphylococcus aureus [6] = experiment: Antibacterial activity against methicillin-resistant Staphylococcus aureus USA300 harboring ClpP delta mutant assessed as inhibition of bacteria-mediated hemolytic activity on rabbit erythrocytes at 128 ug/ml incubated for 30 mins by hemolysis assay; type: functional; conditions: USA300, 0.5 h
Staphylococcus aureus [7] = experiment: Inhibition of spa gene transcription level in methicillin-resistant Staphylococcus aureus USA300 at 64 ug/ml by qPCR analysis; type: functional; conditions: dose 64.0 µg/ml
Staphylococcus aureus [8] = experiment: Antibacterial activity against methicillin-resistant Staphylococcus aureus USA300 infected in C57BL/6J mouse pneumonia model assessed as reduction in IL-6 level in lung at 100 mg/Kg, sc administered every 12 hrs measured after 48 hrs by ELISA; type: functional, organism-based
[9] = Binding affinity to methicillin-resistant Staphylococcus aureus USA300 ClpP assessed as dissociation constant by surface plasmon resonance assay
Staphylococcus aureus [10] = experiment: (§2) Synergistic antibacterial activity against methicillin-resistant Staphylococcus aureus USA300 infected in C57BL/6J mouse pneumonia model assessed as reduction in bacterial load in lung at 100 mg/Kg, sc administered every 12 hrs measured after 48 hrs in presence of cefotaxime (reference value: 7.72 +/- 0.50 log10CFU/g); type: functional
HepG2 = experiment: Cytotoxicity against human HepG2 cells at 64 ug/ml by MTT assay; type: toxicity, cell-based; conditions: dose 64 µg/ml
Staphylococcus aureus [11] = experiment: as §1, with “infiltration of inflammatory cells” for “TNF-alpha level”, “alveoli” for “lung”, “hematoxylin and eosin staining based histopathological analysis” for “ELISA”; type: functional, organism-based
Staphylococcus aureus [12] = experiment: Synergistic […] activity against Cmethicillin-resistant Staphylococcus aureus USA300 assessed as fractional inhibitory concentration index at 64 ug/ml in presence of cefotaxime by checker board method; type: functional; conditions: dose 64 µg/ml
HEK-293T = experiment: Cytotoxicity against human HEK-293T cells at 64 ug/ml by MTT assay; type: toxicity, cell-based; conditions: dose 64 µg/ml
Staphylococcus aureus [13] = experiment: as §2, with “Antibacterial” for “Synergistic antibacterial”, “10.04+/- 0.56” for “7.72 +/- 0.50”; type: functional
[14] = Inhibition of agrA gene transcription level in methicillin-resistant Staphylococcus aureus USA300 at 64 ug/ml by qPCR analysis; type: functional
Staphylococcus aureus [15] = experiment: Inhibition of PVL protein expression in methicillin-resistant Staphylococcus aureus USA300 incubated for overnight by western blot analysis; type: functional; conditions: DDE = dose-dependent effect
Staphylococcus aureus [16] = experiment: Inhibition of pvl gene transcription level in methicillin-resistant Staphylococcus aureus USA300 at 64 ug/ml by qPCR analysis; type: functional; conditions: dose 64.0 µg/ml
Staphylococcus aureus [17] = experiment: Inhibition of hla gene transcription level in methicillin-resistant Staphylococcus aureus USA300 at 64 ug/ml by qPCR analysis; type: functional; conditions: dose 64.0 µg/ml
Staphylococcus aureus [18] = experiment: Binding affinity to methicillin-resistant Staphylococcus aureus USA300 ClpP assessed as decrease in thermal stability of the protein at 16 to 64 ug/ml by SYPRO orange thermal shift assay; conditions: dose 16-64 µg/ml
Staphylococcus aureus [19] = experiment: Inhibition of PVL protein expression in methicillin-resistant Staphylococcus aureus Newman incubated for overnight by western blot analysis; type: functional; conditions: DDE = dose-dependent effect
Staphylococcus aureus [20] = experiment: Inhibition of RNAIII gene transcription level in methicillin-resistant Staphylococcus aureus USA300 at 64 ug/ml by qPCR analysis; type: functional; conditions: dose 64.0 µg/ml
Staphylococcus aureus [21] = experiment: Antibacterial activity against methicillin-resistant Staphylococcus aureus USA300 incubated for 24 hrs by microdilution broth assay; type: functional
Staphylococcus aureus [22] = experiment: Synergistic antibacterial activity against methicillin-resistant Staphylococcus aureus USA300 infected in C57BL/6J mouse pneumonia model assessed as lethality at 50 mg/Kg, sc administered every 12 hrs measured after 72 hrs in presence of cefotaxime (Rvb =40%); type: functional
Staphylococcus aureus [23] = experiment: Antibacterial activity against methicillin-resistant Staphylococcus aureus USA300 harboring delta ClpP mutant infected in C57BL/6J mouse pneumonia model assessed as reduction in mortality rate at 50 mg/Kg, sc administered every 12 hrs measured after 72 hrs (Rvb =80%); type: functional; parameters: scale not given: the % may be the effect or the level left
Staphylococcus aureus [24] = experiment: Inhibition of methicillin-resistant Staphylococcus aureus USA300 ClpP using Suc-LY-AMC as fluorescent substrate at 64 ug/ml preincubated for 1 hr followed by substrate addition and measured after 1 hr by FRET assay relative to control; conditions: dose 64.0 µg/ml, time 2.0 hrs
[25] = Inhibition of methicillin-resistant Staphylococcus aureus USA300 ClpP using Suc-LY-AMC as fluorescent substrate preincubated for 1 hr followed by substrate addition and measured after 1 hr by FRET assay
Staphylococcus aureus [26] = experiment: as §2, with “infiltration of inflammatory cells” for “bacterial load”, “alveoli” for “lung”, “by hematoxylin and eosin staining based histopathological analysis” for “(reference value: 7.72 +/- 0.50 log10CFU/g)”; type: functional, organism-based
Staphylococcus aureus [27] = experiment: Binding affinity to methicillin-resistant Staphylococcus aureus USA300 ClpP assessed as change in thermal stability by measuring protein deposition at 64 ug/ml by measured after 1 hr by cellular thermal shift assay (reference value: 65 degC); conditions: dose 64.0 µg/ml
Staphylococcus aureus [28] = experiment: Inhibition of agr gene transcription level in methicillin-resistant Staphylococcus aureus USA300 at 64 ug/ml by qPCR analysis; type: functional; conditions: dose 64.0 µg/ml
Staphylococcus aureus [29] = experiment: Antibacterial activity against methicillin-resistant Staphylococcus aureus USA300 harboring delta ClpP mutant infected in C57BL/6J mouse pneumonia model assessed as reduction in infiltration of inflammatory cells in alveoli at 100 mg/Kg, sc administered every 12 hrs measured after 48 hrs by hematoxylin and eosin staining based histopathological analysis; type: functional, organism-based
Staphylococcus aureus [30] = experiment: Binding affinity to methicillin-resistant Staphylococcus aureus USA300 ClpP assessed as dissociation rate constant by surface plasmon resonance assay
Staphylococcus aureus [31] = experiment: Antibacterial activity against methicillin-resistant Staphylococcus aureus USA300 infected in C57BL/6J mouse pneumonia model assessed as reduction in IFN-gamma level in lung at 100 mg/Kg, sc administered every 12 hrs measured after 48 hrs by ELISA; type: functional, organism-based
Staphylococcus aureus [32] = experiment: Inhibition of methicillin-resistant Staphylococcus aureus USA300 ClpP assessed as upregulation of urease production at 64 ug/ml incubated for 4 hr by spectrophotometry; conditions: dose 64.0 µg/ml

SMILES: COc1ccc(-c2oc3cc(O)cc(O)c3c(=O)c2O)cc1O [TAMARIXETIN]
- inhibition (Staphylococcus aureus [1]): Active
- Activity (A549): Non-Toxic
- inhibition at 128 µg/mL (Staphylococcus aureus [2]): > 55%
- MIC (Staphylococcus aureus [3]): 16 µg/mL
- Ka (Staphylococcus aureus [4]): 1.69 10^3/M/s
- Activity (Staphylococcus aureus [5]): Active
- inhibition at 128 µg/mL (Staphylococcus aureus [6]): 85.8%
- inhibition (Staphylococcus aureus [7]): Active
- Activity (Staphylococcus aureus [8]): Active
- Kd [9]: 2.52 µM
- Activity (Staphylococcus aureus [10]): 7.03 log10CFU/g
- Activity (HepG2): Non-Toxic
- Activity (Staphylococcus aureus [11]): Active
- fractional inhibitory concentration index (FICI) (Staphylococcus aureus [12]): 0.375
- Activity (HEK-293T): Non-Toxic
- Activity (Staphylococcus aureus [13]): 7.03 log10CFU/g
- inhibition at 64 µg/mL [14]: 83.9%
- inhibition (Staphylococcus aureus [15]): Dde
- inhibition (Staphylococcus aureus [16]): Active
- inhibition (Staphylococcus aureus [17]): Active
- ΔTm (Staphylococcus aureus [18]): > 2 °C
- inhibition (Staphylococcus aureus [19]): Dde
- inhibition (Staphylococcus aureus [20]): Active
- MIC (Staphylococcus aureus [21]): 512 µg/mL (≈ 1620 µM)
- Activity (Staphylococcus aureus [22]): 20%
- Activity (Staphylococcus aureus [23]): 70%
- inhibition (Staphylococcus aureus [24]): 2.5%
- IC50 [25]: 49.7 µM
- Activity (Staphylococcus aureus [26]): Active
- Activity (Staphylococcus aureus [27]): Active
- inhibition (Staphylococcus aureus [28]): Active
- Activity (Staphylococcus aureus [29]): Active
- Kdiss (Staphylococcus aureus [30]): 4.26 10^-3/s
- Activity (Staphylococcus aureus [31]): Active
- inhibition (Staphylococcus aureus [32]): Active
